pIC50: −log10 of the molar value.
How the values were obtained:
[1] = target: EGFR (Homo sapiens (Human), UniProt P00533); test: ErbB Enzyme Assay (HTRF KinEASE-TK), Assay 3; format: biochemical
Procedure: The kinases were incubated with 250 nM TK-substrate biotin (CisBio, part of cat #62TKOPEC) at 1 mM ATP along with test compounds in a buffer consisting of 25 mM HEPES, pH 7.4, 10 mM MgCl2, 0.01% Triton X-100, and 2% DMSO in a volume of 8 μL. […] After 30-minute incubation at 22° C., the reaction was quenched by adding 8 μL of quench solution containing 62.5 nM Sa-XL665 and 0.25×TK-Ab-Cryptate in HTRF detection buffer (all from CisBio, part of cat #62TKOPEC). […] A 4-parameter logistic curve was fit to the POC values as a function of the concentration of compound, and the IC50 value was the point where the best-fit curve crossed 50 POC.

[2] = target: EGFR wild type (EGFR WT) (Homo sapiens (Human), UniProt P00533); test: Cellular Phosphorylation Assay, Assay 5 (EGF-stimulated EGFR phosphorylation, NIH 3T3 cells); format: cell-based
Procedure: (§1) NIH 3T3 cells were engineered to express ErbB2 with Exon 20 YVMA insertion (HER2-YVMA (SEQ ID NO: 2); Assay 4) or EGFR wild type (EGFR WT; Assay 5) with constructs obtained from GenScript and grown in DMEM supplemented with 10% fetal bovine serum and 15 μg/ml blasticidin. […] Serially diluted compounds were added to the plates for 1 hour at 37° C./5% CO2. EGFR WT cells were stimulated with 100 ng/ml rEGF for an additional 10 minutes at 37° C./5% CO2.
(§2) After compound incubation, medium was removed from the cells, which were then fixed in 3.7% formaldehyde in PBS at room temperature for 20 minutes. Following a wash with PBS, cells were permeabilized with 100% methanol at room temperature for 10 minutes. Cells were then washed with PBS/0.05% Tween-20 and blocked with Odyssey blocking buffer (LI-COR Biosciences) for at least 1 hour at room temperature. Antibodies to phosphorylated ErbB2 (Y1196, Cell Signaling #6942) or phosphorylated EGFR (Y1068, Cell Signaling #3777) and GAPDH (Millipore #MAB374) were added to the cells in blocking buffer containing 0.05% azide and incubated overnight at 4° C. After washing with PBS/0.05% Tween-20, the cells were incubated with fluorescently labeled secondary anti-rabbit antibody (LiCOR, IRDye 800CW #926-32211) and anti-mouse antibody (Molecular Probes, Alexa Fluor 680 #A21058) for 1 hour at room temperature in the dark. Cells were then washed and analyzed for fluorescence at both wavelengths using the Odyssey Infrared Imaging System (LI-COR Biosciences). Phosphorylated ErbB2 and EGFR signal was normalized to GAPDH signal to generate curves and calculate IC50 values.

[3] = target: ErbB2 WT (Homo sapiens (Human), UniProt P04626); test: ErbB Enzyme Assay (HTRF KinEASE-TK), Assay 2; format: biochemical; details: ErbB2 WT enzyme
Procedure: The kinases were incubated with 250 nM TK-substrate biotin (CisBio, part of cat #62TKOPEC) at 1 mM ATP along with test compounds in a buffer consisting of 25 mM HEPES, pH 7.4, 10 mM MgCl2, 0.01% Triton X-100, and 2% DMSO in a volume of 8 μL. […] After 30-minute incubation at 22° C., the reaction was quenched by adding 8 μL of quench solution containing 62.5 nM Sa-XL665 and 0.25×TK-Ab-Cryptate in HTRF detection buffer (all from CisBio, part of cat #62TKOPEC).

[4] = target: ErbB2 with Exon 20 YVMA insertion (HER2-YVMA) (Homo sapiens (Human), UniProt P04626, INS775YVMA); test: Cellular Phosphorylation Assay, Assay 4 (constitutive ErbB2 phosphorylation, NIH 3T3 cells); format: cell-based; details: ErbB2 YVMA phosphorylation
Procedure: as §1, §2

[5] = EGF-stimulated EGFR WT phosphorylation
[6] = cellular EGFR WT phosphorylation, EGF-stimulated

ErbB2 with Exon 20 YVMA insertion (HER2-YVMA), sequence (P04626 other isoform, or with tags, fused parts or gaps ins YVMA behind 775): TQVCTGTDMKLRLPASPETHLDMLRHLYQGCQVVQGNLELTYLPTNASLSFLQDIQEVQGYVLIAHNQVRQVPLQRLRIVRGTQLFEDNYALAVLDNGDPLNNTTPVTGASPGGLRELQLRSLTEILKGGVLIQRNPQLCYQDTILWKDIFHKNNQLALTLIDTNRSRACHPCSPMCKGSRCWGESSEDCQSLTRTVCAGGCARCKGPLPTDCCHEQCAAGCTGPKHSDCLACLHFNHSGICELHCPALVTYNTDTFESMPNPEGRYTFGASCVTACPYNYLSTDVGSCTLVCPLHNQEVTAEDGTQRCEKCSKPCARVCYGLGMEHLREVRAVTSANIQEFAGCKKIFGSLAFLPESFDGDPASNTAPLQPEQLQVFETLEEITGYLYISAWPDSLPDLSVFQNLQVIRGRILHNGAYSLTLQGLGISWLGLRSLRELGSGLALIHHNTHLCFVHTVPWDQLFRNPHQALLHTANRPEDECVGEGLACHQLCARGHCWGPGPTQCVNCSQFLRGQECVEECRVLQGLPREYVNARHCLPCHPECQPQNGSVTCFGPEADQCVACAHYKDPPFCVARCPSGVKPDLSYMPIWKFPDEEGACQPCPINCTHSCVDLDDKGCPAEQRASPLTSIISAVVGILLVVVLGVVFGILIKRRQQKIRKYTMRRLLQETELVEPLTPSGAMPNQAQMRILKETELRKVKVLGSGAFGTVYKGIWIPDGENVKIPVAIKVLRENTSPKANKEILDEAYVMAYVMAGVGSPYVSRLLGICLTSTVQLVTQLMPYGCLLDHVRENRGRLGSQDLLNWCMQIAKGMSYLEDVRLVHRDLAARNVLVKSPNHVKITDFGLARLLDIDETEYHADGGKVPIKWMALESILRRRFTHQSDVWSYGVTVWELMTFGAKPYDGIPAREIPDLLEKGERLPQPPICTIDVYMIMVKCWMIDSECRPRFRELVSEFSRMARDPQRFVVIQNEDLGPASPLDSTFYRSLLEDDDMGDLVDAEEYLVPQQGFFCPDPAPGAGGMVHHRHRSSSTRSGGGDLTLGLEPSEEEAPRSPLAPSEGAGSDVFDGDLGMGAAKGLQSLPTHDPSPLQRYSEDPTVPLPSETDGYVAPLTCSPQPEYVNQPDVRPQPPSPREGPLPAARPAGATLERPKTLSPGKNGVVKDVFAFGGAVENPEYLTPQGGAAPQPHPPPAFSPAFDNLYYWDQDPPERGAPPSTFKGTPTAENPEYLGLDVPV
ErbB2 WT, sequence (P04626 23-1255): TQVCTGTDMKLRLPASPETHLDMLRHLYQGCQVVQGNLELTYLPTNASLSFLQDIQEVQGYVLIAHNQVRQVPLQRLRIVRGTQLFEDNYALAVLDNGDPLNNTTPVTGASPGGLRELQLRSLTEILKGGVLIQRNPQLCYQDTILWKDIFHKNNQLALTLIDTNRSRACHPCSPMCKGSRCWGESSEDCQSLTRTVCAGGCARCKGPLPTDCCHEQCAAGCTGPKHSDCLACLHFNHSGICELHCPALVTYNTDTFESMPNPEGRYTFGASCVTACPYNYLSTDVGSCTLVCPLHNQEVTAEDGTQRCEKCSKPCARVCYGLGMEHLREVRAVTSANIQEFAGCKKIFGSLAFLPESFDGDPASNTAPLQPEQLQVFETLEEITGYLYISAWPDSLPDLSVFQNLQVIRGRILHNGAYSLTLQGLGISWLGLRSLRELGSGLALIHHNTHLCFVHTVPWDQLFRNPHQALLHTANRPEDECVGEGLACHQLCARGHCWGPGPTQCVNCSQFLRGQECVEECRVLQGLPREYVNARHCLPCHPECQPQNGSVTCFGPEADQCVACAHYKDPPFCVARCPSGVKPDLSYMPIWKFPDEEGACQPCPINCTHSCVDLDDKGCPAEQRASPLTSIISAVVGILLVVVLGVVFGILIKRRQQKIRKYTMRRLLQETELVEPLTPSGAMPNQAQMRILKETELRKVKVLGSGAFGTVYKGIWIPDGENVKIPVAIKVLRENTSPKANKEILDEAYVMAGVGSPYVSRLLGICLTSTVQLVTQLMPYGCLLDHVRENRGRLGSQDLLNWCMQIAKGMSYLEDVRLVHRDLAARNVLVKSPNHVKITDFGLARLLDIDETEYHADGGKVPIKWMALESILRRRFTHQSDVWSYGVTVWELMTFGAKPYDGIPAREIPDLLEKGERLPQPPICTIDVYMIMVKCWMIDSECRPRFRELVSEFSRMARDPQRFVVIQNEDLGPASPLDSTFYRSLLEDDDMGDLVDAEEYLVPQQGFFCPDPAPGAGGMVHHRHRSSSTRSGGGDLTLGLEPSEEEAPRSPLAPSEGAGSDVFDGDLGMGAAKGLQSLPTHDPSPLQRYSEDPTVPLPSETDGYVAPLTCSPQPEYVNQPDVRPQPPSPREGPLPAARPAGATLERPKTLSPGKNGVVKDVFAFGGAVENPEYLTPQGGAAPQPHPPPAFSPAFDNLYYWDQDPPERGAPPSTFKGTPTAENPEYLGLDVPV
EGFR, sequence (P00533 25-1210): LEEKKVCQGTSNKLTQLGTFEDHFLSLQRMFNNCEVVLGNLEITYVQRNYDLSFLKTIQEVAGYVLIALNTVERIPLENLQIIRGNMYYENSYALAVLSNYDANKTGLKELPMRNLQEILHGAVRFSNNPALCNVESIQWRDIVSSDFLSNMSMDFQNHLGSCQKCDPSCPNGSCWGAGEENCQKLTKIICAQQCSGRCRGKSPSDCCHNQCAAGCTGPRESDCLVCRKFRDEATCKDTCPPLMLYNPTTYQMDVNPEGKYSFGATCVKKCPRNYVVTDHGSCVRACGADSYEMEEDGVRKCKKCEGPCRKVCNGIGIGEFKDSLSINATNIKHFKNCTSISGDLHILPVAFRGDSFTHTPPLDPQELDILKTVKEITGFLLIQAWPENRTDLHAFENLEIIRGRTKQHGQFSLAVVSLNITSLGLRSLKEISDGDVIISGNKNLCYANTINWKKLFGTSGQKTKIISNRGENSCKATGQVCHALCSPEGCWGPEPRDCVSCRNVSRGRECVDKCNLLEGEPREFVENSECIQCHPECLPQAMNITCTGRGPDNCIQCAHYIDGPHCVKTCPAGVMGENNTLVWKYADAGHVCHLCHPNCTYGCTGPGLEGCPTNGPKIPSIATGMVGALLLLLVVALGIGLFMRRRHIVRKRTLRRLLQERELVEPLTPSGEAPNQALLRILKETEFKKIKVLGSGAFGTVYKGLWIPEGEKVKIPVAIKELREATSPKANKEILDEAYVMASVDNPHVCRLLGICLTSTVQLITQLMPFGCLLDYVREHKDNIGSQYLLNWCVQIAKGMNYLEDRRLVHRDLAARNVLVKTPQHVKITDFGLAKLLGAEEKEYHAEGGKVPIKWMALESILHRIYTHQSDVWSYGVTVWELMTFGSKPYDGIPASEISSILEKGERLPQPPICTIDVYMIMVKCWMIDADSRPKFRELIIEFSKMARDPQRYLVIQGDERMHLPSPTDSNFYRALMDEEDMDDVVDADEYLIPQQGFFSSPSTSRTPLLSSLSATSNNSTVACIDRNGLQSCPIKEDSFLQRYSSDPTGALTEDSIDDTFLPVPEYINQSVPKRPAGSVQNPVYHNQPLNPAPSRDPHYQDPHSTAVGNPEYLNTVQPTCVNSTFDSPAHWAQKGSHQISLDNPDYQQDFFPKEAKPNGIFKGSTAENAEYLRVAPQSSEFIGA
EGFR wild type (EGFR WT), sequence (P00533 25-1210): as above

Compound | pIC50 ([1]; EGFR enzyme) | pIC50 [2, 5] | pIC50 ([1]; EGFR enzyme assay) | pIC50 [2, 6] | pIC50 [3] | pIC50 [4]
C=CC(=O)N1CCN(c2ccc3ncnc(Nc4ccc(Oc5ccn6ncnc6c5)c(C)c4F)c3n2)C[C@@H]1CC [Example 269] |  |  | 5.09 | ≤ 5.30 |  | 
C=CC(=O)N1CCN(c2ccc3ncnc(Nc4ccc(Oc5ccn6ncnc6c5)c(C)c4F)c3n2)C[C@H]1CC [Example 274] |  |  | 5.63 | 6.17 |  | 
C=CC(=O)N1C[C@H]2CC[C@@H]1C[C@@H]2c1ccc2ncnc(Nc3cc(C)c(Oc4ccn5ncnc5c4)cc3F)c2n1 (racemic) [Example 216, rac-1-((1R,4S,5S)-5-(4-((4-([1,2,4]triazolo[1,5-a]pyridin-7-yloxy)-2-fluoro-5-methylphenyl)amino)pyrido[3,2-d]pyrimidin-6-yl)-2-azabicyclo[2.2.2]octan-2-yl)prop-2-en-1-one] | 5.30 | ≤ 5.30 |  |  |  | 
C=CC(=O)N1C[C@H]2CC[C@@H]1C[C@H]2c1ccc2ncnc(Nc3cc(C)c(Oc4ccn5ncnc5c4)cc3F)c2n1 [Example 402] |  |  | 5.31 | ≤ 5.30 |  | 
C=CC(=O)N1C2COCC1CC(c1ccc3ncnc(Nc4ccc(Oc5ccc6c(c5)ncn6C)c(C)c4F)c3n1)C2 (centres unmarked) [Example 161, 1-(7-(4-((2-fluoro-3-methyl-4-((1-methyl-1H-benzo[d]imidazol-5-yl)oxy)phenyl)amino)pyrido[3,2-d]pyrimidin-6-yl)-3-oxa-9-azabicyclo[3.3.1]nonan-9-yl)prop-2-en-1-one] | 6.24 | 6.43 |  |  | 7.70 | 
C=CC(=O)N1CCC(Oc2ccc3ncnc(Nc4ccc(Oc5ccc6sc(C)nc6c5)c(C)c4)c3n2)CC1 [Example 7, 1-(4-((4-((3-methyl-4-((2-methylbenzo[d]thiazol-5-yl)oxy)phenyl)amino)pyrido[3,2-d]pyrimidin-6-yl)oxy)piperidin-1-yl)prop-2-en-1-one] | ≤ 5.00 |  |  |  | 5.68 | 
C=CC(=O)N1CCC(Oc2ccc3ncnc(Nc4ccc(Oc5ccc6sc(C)nc6c5)c(Cl)c4F)c3n2)CC1 [Example 16, 1-(4-((4-((3-chloro-2-fluoro-4-((2-methylbenzo[d]thiazol-5-yl)oxy)phenyl)amino)pyrido[3,2-d]pyrimidin-6-yl)oxy)piperidin-1-yl)prop-2-en-1-one] | ≤ 5.00 |  |  |  | 5.00 | 
C=CC(=O)N1CC2(C1)CN(c1ccc3ncnc(Nc4cc(Cl)c(Oc5ccn6ncnc6c5)cc4F)c3n1)C2 [Example 342] |  |  | ≤ 5.00 | ≤ 5.30 |  | 
CC#CC(=O)N1CCN(c2ccc3ncnc(Nc4ccc(Oc5ccn6ncnc6c5)c(C)c4F)c3n2)C[C@H]1C [Example 184, (R)-1-(4-(4-((4-([1,2,4]triazolo[1,5-a]pyridin-7-yloxy)-2-fluoro-3-methylphenyl)amino)pyrido[3,2-d]pyrimidin-6-yl)-2-methylpiperazin-1-yl)but-2-yn-1-one] | ≤ 5.00 | ≤ 5.30 |  |  |  | 
C=CC(=O)N1[C@H](C)CN(c2ccc3ncnc(Nc4ccc(Oc5ccn6ncnc6c5)c(C)c4F)c3n2)C[C@@H]1C [Example 264] |  |  | 5.18 | 5.34 |  | 
C=CC(=O)N1C[C@H]2CC[C@@H]1[C@H](c1ccc3ncnc(Nc4cc(C)c(Oc5ccn6ncnc6c5)cc4F)c3n1)C2 [Example 395] |  |  | ≤ 5.00 | ≤ 5.30 |  | 
C=CC(=O)N1CCC12CN(c1ccc3ncnc(Nc4ccc(Oc5ccn6ncnc6c5)c(C)c4F)c3n1)C2 [Example 275] |  |  | 6.05 | 6.28 |  | 
C=CC(=O)N1CCC(Oc2ccc3ncnc(Nc4ccc(Oc5ccc6sc(C)nc6c5)c(C)c4F)c3n2)CC1 [Example 10, 1-(4-((4-((2-fluoro-3-methyl-4-((2-methylbenzo[d]thiazol-5-yl)oxy)phenyl)amino)pyrido[3,2-d]pyrimidin-6-yl)oxy)piperidin-1-yl)prop-2-en-1-one] | ≤ 5.00 |  |  |  | 5.62 | 
C=CC(=O)N1C[C@H]2CC[C@@H]1[C@@H](c1ccc3ncnc(Nc4cc(C)c(Oc5ccn6ncnc6c5)cc4F)c3n1)C2 [Example 396] |  |  | 5.39 | ≤ 5.30 |  | 
C=CC(=O)N1CCC(Oc2ccc3ncnc(Nc4ccc(Oc5cnc6cn(C)nc6c5)c(C)c4F)c3n2)CC1 [Example 58, 1-(4-((4-((2-fluoro-3-methyl-4-((2-methyl-2H-pyrazolo[4,3-b]pyridin-6-yl)oxy)phenyl)amino)pyrido[3,2-d]pyrimidin-6-yl)oxy)piperidin-1-yl)prop-2-en-1-one] | ≤ 5.00 | 5.65 |  |  |  | 

Second part, the compound after the results:

pIC50 ([1]; EGFR enzyme) | pIC50 [2, 5] | pIC50 ([1]; EGFR enzyme assay) | pIC50 [2, 6] | pIC50 [3] | pIC50 [4] | Compound
≤ 5.00 | 5.49 |  |  |  |  | C=CC(=O)N1CC[C@H]2CN(c3ccc4ncnc(Nc5ccc(Oc6ccn7ncnc7c6)c(C)c5F)c4n3)C[C@H]21 [Example 50, 1-((3aS,6aS)-5-(4-((4-([1,2,4]triazolo[1,5-a]pyridin-7-yloxy)-2-fluoro-3-methylphenyl)amino)pyrido[3,2-d]pyrimidin-6-yl)hexahydropyrrolo[3,4-b]pyrrol-1(2H)-yl)prop-2-en-1-one]
≤ 5.00 | ≤ 5.30 |  |  |  |  | C=CC(=O)N1CC[C@H]2CN(c3ccc4ncnc(Nc5ccc(Oc6ccc7c(c6)ncn7C)c(C)c5)c4n3)C[C@H]21 (racemic) [Example 104, rac-1-((3aR,6aR)-5-(4-((3-methyl-4-((1-methyl-1H-benzo[d]imidazol-5-yl)oxy)phenyl)amino)pyrido[3,2-d]pyrimidin-6-yl)hexahydropyrrolo[3,4-b]pyrrol-1(2H)-yl)prop-2-en-1-one]
6.15 |  |  |  | 7.14 | 7.19 | C=CC(=O)N(C)c1ccc2ncnc(Nc3ccc(Oc4ccc5c(c4)ncn5C)c(C)c3)c2n1 [Example 23, N-methyl-N-(4-((3-methyl-4-((1-methyl-1H-benzo[d]imidazol-5-yl)oxy)phenyl)amino)pyrido[3,2-d]pyrimidin-6-yl)acrylamide]
6.69 |  |  |  | 7.75 | 7.06 | CC#CC(=O)Nc1ccc2ncnc(Nc3ccc(Oc4ccc5c(c4)ncn5C)c(C)c3)c2n1 [Example 19, N-(4-((3-methyl-4-((1-methyl-1H-benzo[d]imidazol-5-yl)oxy)phenyl)amino)pyrido[3,2-d]pyrimidin-6-yl)but-2-ynamide]
≤ 5.00 |  |  |  | 6.78 | 7.09 | CNC(=O)/C=C/c1ccc2ncnc(Nc3ccc(Oc4ccc5c(c4)ncn5C)c(C)c3)c2n1 [Example 22, (E)-N-methyl-3-(4-((3-methyl-4-((1-methyl-1H-benzo[d]imidazol-5-yl)oxy)phenyl)amino)pyrido[3,2-d]pyrimidin-6-yl)acrylamide]
≤ 5.00 | ≤ 5.30 |  |  |  |  | C=CC(=O)N1CC[C@@H]2CN(c3ccc4ncnc(Nc5ccc(Oc6ccc7c(c6)ncn7C)c(C)c5)c4n3)C[C@@H]21 [Example 111, 1-((3aR,6aR)-5-(4-((3-methyl-4-((1-methyl-1H-benzo[d]imidazol-5-yl)oxy)phenyl)amino)pyrido[3,2-d]pyrimidin-6-yl)hexahydropyrrolo[3,4-b]pyrrol-1(2H)-yl)prop-2-en-1-one]
≤ 5.00 | ≤ 5.30 |  |  |  |  | C=CC(=O)N1CC[C@@H]2CN(c3ccc4ncnc(Nc5ccc(Oc6ccn7ncnc7c6)c(C)c5F)c4n3)C[C@@H]21 [Example 71, 1-((3aR,6aR)-5-(4-((4-([1,2,4]triazolo[1,5-a]pyridin-7-yloxy)-2-fluoro-3-methylphenyl)amino)pyrido[3,2-d]pyrimidin-6-yl)hexahydropyrrolo[3,4-b]pyrrol-1(2H)-yl)prop-2-en-1-one]
≤ 5.00 | ≤ 5.30 |  |  |  |  | C=CC(=O)N1CC[C@H]2CN(c3ccc4ncnc(Nc5ccc(Oc6ccc7c(c6)ncn7C)c(C)c5)c4n3)C[C@H]21 [Example 117, 1-((3aS,6aS)-5-(4-((3-methyl-4-((1-methyl-1H-benzo[d]imidazol-5-yl)oxy)phenyl)amino)pyrido[3,2-d]pyrimidin-6-yl)hexahydropyrrolo[3,4-b]pyrrol-1(2H)-yl)prop-2-en-1-one]

— patent US12447153B2, “HER2 mutation inhibitors” (Array BioPharma Inc., priority 2021, dated 2025)
